Data taken from patent US10266609B2, “Immunomodulating beta-1,6-D-glucans” (Innate Biotherapeutics, LLC, priority 2014, dated 2019).

tested on: Anti-β-1,6-Glucan IgG antibodies (affinity purified from IVIG, Baxter); test: ELISA: binding of oligosaccharides to anti-β-1,6-glucan antibodies; conditions: plate coated with oligosaccharide in PBS; 40 ug/mL anti-Beta 1,6 Glucan IgG; anti-human IgG-HRP, TMB, absorbance at 620 nm; note: key: a plus (+) sign indicates that the glucan was active in the assay; a minus (−) sign indicates that the glucan was not active; the '+/−' symbol indicates inconclusive results
Description: Binding of oligosaccharides to anti-β-1,6-glucan antibodies is performed as described in the following protocol.
• 1. […] Anti-β-1,6-Glucan IgG antibodies (affinity purified from IVIG, Baxter) • 6. […] PBS-Tween buffer (PH 7.2, 0.05% Tween 20, Kpl cat #51-12-01) II. Method: Detection of Anti-Beta Glucan IgG by ELISA • 1. Coat plate with oligosaccharides in PBS overnight at 4° C. • 2. Wash 3 times with 250 uL of PBS-Tween • 3. Empty plate • 4. Block plate with 200 uL of Casein for 1 hour at room temperature • 5. Empty plate • 6. Add 40 ug/mL anti-Beta 1,6 Glucan IgG (4 ug/well) in Casein • 7. Incubate for 45 min at room temperature • 8. Wash 3 times with 250 uL of PBS-Tween • 9. Empty plate • 10. Add detection antibody: anti-human IgG-HRP at 1:5000—in casein. Incubate for 45 min at room temperature in the dark • 11. Wash 5 times with 250 uL of PBS-Tween • 12. Empty plate • 13. Add 100 uL of one step ultra TMB • 14. Measure the absorbance at 620 nm every 1 min for 60 min Tables 1-3 provide ELISA assay data for certain glucan compounds.

| Molecule | ELISA assay data: glucan active in detection of anti-beta glucan IgG |
| --- | --- |
| OC[C@H]1O[C@@H](OC[C@H]2O[C@@H](OC[C@H]3O[C@@H](OC[C@H]4O[C@@H](OC[C@H]5O[C@@H](OC[C@H]6O[C@@H](OC[C@H]7O[C@@H](OC[C@H]8O[C@@H](OC[C@H]9O[C@@H](OC[C@H]%10O[C@@H](OC[C@H]%11O[C@@H](OC[C@H]%12OC(O)[C@H](O)[C@@H](O)[C@@H]%12O)[C@H](O)[C@@H](O)[C@@H]%11O)[C@H](O)[C@@H](O)[C@@H]%10O)[C@H](O)[C@@H](O)[C@@H]9O)[C@H](O)[C@@H](O)[C@@H]8O)[C@H](O)[C@@H](O)[C@@H]7O)[C@H](O)[C@@H](O)[C@@H]6O)[C@H](O)[C@@H](O)[C@@H]5O)[C@H](O)[C@@H](O)[C@@H]4O)[C@H](O)[C@@H](O)[C@@H]3O)[C@H](O)[C@@H](O)[C@@H]2O)[C@H](O)[C@@H](O)[C@@H]1O (stereo partly drawn) [OH, n=12, [O-β-D-glucopyranosyl-1,6-]11-D-glucose] | + |
| OC[C@H]1O[C@@H](OC[C@H]2O[C@@H](OC[C@H]3OC(OCCCl)[C@H](O)[C@@H](O)[C@@H]3O)[C@H](O)[C@@H](O)[C@@H]2O)[C@H](O)[C@@H](O)[C@@H]1O (stereo partly drawn) [α-O(CH2)2Cl, n=3, 2-chloroethyl [O-β-D-glucopyranosyl-1,6]2-D-glucopyranoside] | + |
| OC[C@H]1O[C@@H](OC[C@H]2O[C@@H](OC[C@H]3O[C@@H](OC[C@H]4OC(OCCCl)[C@H](O)[C@@H](O)[C@@H]4O)[C@H](O)[C@@H](O)[C@@H]3O)[C@H](O)[C@@H](O)[C@@H]2O)[C@H](O)[C@@H](O)[C@@H]1O (stereo partly drawn) [α-O(CH2)2Cl, n=4, 2-chloroethyl [O-β-D-glucopyranosyl-1,6]3-D-glucopyranoside] | + |
| OC[C@H]1O[C@@H](OC[C@H]2O[C@@H](OC[C@H]3O[C@@H](OC[C@H]4O[C@@H](OC[C@H]5O[C@H](OCCCl)[C@H](O)[C@@H](O)[C@@H]5O)[C@H](O)[C@@H](O)[C@@H]4O)[C@H](O)[C@@H](O)[C@@H]3O)[C@H](O)[C@@H](O)[C@@H]2O)[C@H](O)[C@@H](O)[C@@H]1O [α-O(CH2)2Cl, n=5, 2-chloroethyl [O-β-D-glucopyranosyl-1,6]4-D-glucopyranoside] | + |
| OC[C@H]1O[C@@H](OC[C@H]2O[C@@H](OC[C@H]3O[C@@H](OC[C@H]4O[C@@H](OC[C@H]5O[C@@H](OC[C@H]6OC(OCCCl)[C@H](O)[C@@H](O)[C@@H]6O)[C@H](O)[C@@H](O)[C@@H]5O)[C@H](O)[C@@H](O)[C@@H]4O)[C@H](O)[C@@H](O)[C@@H]3O)[C@H](O)[C@@H](O)[C@@H]2O)[C@H](O)[C@@H](O)[C@@H]1O (stereo partly drawn) [α-O(CH2)2Cl, n=6, 2-chloroethyl [O-β-D-glucopyranosyl-1,6]5-D-glucopyranoside] | + |
| OC[C@H]1O[C@@H](OC[C@H]2O[C@@H](OC[C@H]3O[C@@H](OC[C@H]4O[C@@H](OC[C@H]5O[C@@H](OC[C@H]6O[C@@H](OC[C@H]7OC(OCCCl)[C@H](O)[C@@H](O)[C@@H]7O)[C@H](O)[C@@H](O)[C@@H]6O)[C@H](O)[C@@H](O)[C@@H]5O)[C@H](O)[C@@H](O)[C@@H]4O)[C@H](O)[C@@H](O)[C@@H]3O)[C@H](O)[C@@H](O)[C@@H]2O)[C@H](O)[C@@H](O)[C@@H]1O (stereo partly drawn) [α-O(CH2)2Cl, n=7, 2-chloroethyl [O-β-D-glucopyranosyl-1,6]6-D-glucopyranoside] | + |
| OC[C@H]1O[C@@H](OC[C@H]2O[C@@H](OC[C@H]3O[C@@H](OC[C@H]4O[C@@H](OC[C@H]5O[C@@H](OC[C@H]6O[C@@H](OC[C@H]7O[C@@H](OC[C@H]8O[C@H](OCCCl)[C@H](O)[C@@H](O)[C@@H]8O)[C@H](O)[C@@H](O)[C@@H]7O)[C@H](O)[C@@H](O)[C@@H]6O)[C@H](O)[C@@H](O)[C@@H]5O)[C@H](O)[C@@H](O)[C@@H]4O)[C@H](O)[C@@H](O)[C@@H]3O)[C@H](O)[C@@H](O)[C@@H]2O)[C@H](O)[C@@H](O)[C@@H]1O [α-O(CH2)2Cl, n=8, 2-chloroethyl [O-β-D-glucopyranosyl-1,6]7-D-glucopyranoside] | + |
| OC[C@H]1O[C@@H](OC[C@H]2O[C@@H](OC[C@H]3O[C@@H](OC[C@H]4O[C@@H](OC[C@H]5O[C@@H](OC[C@H]6O[C@@H](OC[C@H]7O[C@@H](OC[C@H]8O[C@@H](OC[C@H]9OC(OCCCl)[C@H](O)[C@@H](O)[C@@H]9O)[C@H](O)[C@@H](O)[C@@H]8O)[C@H](O)[C@@H](O)[C@@H]7O)[C@H](O)[C@@H](O)[C@@H]6O)[C@H](O)[C@@H](O)[C@@H]5O)[C@H](O)[C@@H](O)[C@@H]4O)[C@H](O)[C@@H](O)[C@@H]3O)[C@H](O)[C@@H](O)[C@@H]2O)[C@H](O)[C@@H](O)[C@@H]1O (stereo partly drawn) [α-O(CH2)2Cl, n=9, 2-chloroethyl [O-β-D-glucopyranosyl-1,6]8-D-glucopyranoside] | + |
| [N-]=[N+]=NCCOC1OC(COC2OC(COC3OC(CO)C(O)C(O)C3O)C(O)C(O)C2O)C(O)C(O)C1O (stereo not drawn) [α-O(CH2)2N3, n=3] | + |
| [N-]=[N+]=NCCO[C@H]1O[C@H](CO[C@@H]2O[C@H](CO[C@@H]3O[C@H](CO[C@@H]4O[C@H](CO)[C@@H](O)[C@H](O)[C@H]4O)[C@@H](O)[C@H](O)[C@H]3O)[C@@H](O)[C@H](O)[C@H]2O)[C@@H](O)[C@H](O)[C@H]1O [α-O(CH2)2N3, n=4, 1-O-(2-azidoethyl)-6-[O-β-D-glucopyranosyl-1,6]3-α-D-glucopyranoside] | + |
| [N-]=[N+]=NCCOC1OC(COC2OC(COC3OC(COC4OC(COC5OC(CO)C(O)C(O)C5O)C(O)C(O)C4O)C(O)C(O)C3O)C(O)C(O)C2O)C(O)C(O)C1O (stereo not drawn) [α-O(CH2)2N3, n=5] | + |
| [N-]=[N+]=NCCOC1OC(COC2OC(COC3OC(COC4OC(COC5OC(COC6OC(CO)C(O)C(O)C6O)C(O)C(O)C5O)C(O)C(O)C4O)C(O)C(O)C3O)C(O)C(O)C2O)C(O)C(O)C1O (stereo not drawn) [α-O(CH2)2N3, n=6] | + |
| [N-]=[N+]=NCCOC1OC(COC2OC(COC3OC(COC4OC(COC5OC(COC6OC(COC7OC(CO)C(O)C(O)C7O)C(O)C(O)C6O)C(O)C(O)C5O)C(O)C(O)C4O)C(O)C(O)C3O)C(O)C(O)C2O)C(O)C(O)C1O (stereo not drawn) [α-O(CH2)2N3, n=7] | + |
| [N-]=[N+]=NCCOC1OC(COC2OC(COC3OC(COC4OC(COC5OC(COC6OC(COC7OC(COC8OC(CO)C(O)C(O)C8O)C(O)C(O)C7O)C(O)C(O)C6O)C(O)C(O)C5O)C(O)C(O)C4O)C(O)C(O)C3O)C(O)C(O)C2O)C(O)C(O)C1O (stereo not drawn) [α-O(CH2)2N3, n=8] | + |
| [N-]=[N+]=NCCOC1OC(COC2OC(COC3OC(COC4OC(COC5OC(COC6OC(COC7OC(COC8OC(COC9OC(CO)C(O)C(O)C9O)C(O)C(O)C8O)C(O)C(O)C7O)C(O)C(O)C6O)C(O)C(O)C5O)C(O)C(O)C4O)C(O)C(O)C3O)C(O)C(O)C2O)C(O)C(O)C1O (stereo not drawn) [α-O(CH2)2N3, n=9] | + |
| [N-]=[N+]=NCCO[C@@H]1O[C@H](CO[C@@H]2O[C@H](CO[C@@H]3O[C@H](CO[C@@H]4O[C@H](CO[C@@H]5O[C@H](CO)[C@@H](O)[C@H](O)[C@H]5O)[C@@H](O)[C@H](O)[C@H]4O)[C@@H](O)[C@H](O)[C@H]3O)[C@@H](O)[C@H](O)[C@H]2O)[C@@H](O)[C@H](O)[C@H]1O [β-O(CH2)2N3, n=5, 2-azidoethyl [O-β-D-glucopyranosyl-1,6]4-β-D-glucopyranoside] | + |
| [N-]=[N+]=NCCO[C@@H]1OC(CO[C@@H]2OC(CO[C@@H]3OC(CO[C@@H]4OC(CO[C@@H]5OC(CO[C@@H]6O[C@H](CO)[C@@H](O)[C@H](O)[C@H]6O)[C@@H](O)[C@H](O)[C@H]5O)[C@@H](O)[C@H](O)[C@H]4O)[C@@H](O)[C@H](O)[C@H]3O)[C@@H](O)[C@H](O)[C@H]2O)[C@@H](O)[C@H](O)[C@H]1O (stereo partly drawn) [β-O(CH2)2N3, n=6, 2-Azidoethyl [O-β-D-glucopyranosyl-1,6]5-β-D-glucopyranoside] | + |
| O=CCCCCO[C@@H]1O[C@H](CO[C@@H]2O[C@H](CO[C@@H]3O[C@H](CO[C@@H]4O[C@H](CO)[C@@H](O)[C@H](O)[C@H]4O)[C@@H](O)[C@H](O)[C@H]3O)[C@@H](O)[C@H](O)[C@H]2O)[C@@H](O)[C@H](O)[C@H]1O [β-O(CH2)4C═O, n=4, 1-O-[4-oxybutoxy]-6-O—[O-β-D-glucopyranosyl-(1,6)]3-β-D-glucopyranoside] | + |
| N#C[C@H](O[C@@H]1O[C@H](CO[C@@H]2O[C@H](CO)[C@@H](O)[C@H](O)[C@H]2O)[C@@H](O)[C@H](O)[C@H]1O)c1ccccc1 [β-OCH(CN)Ph, n=2, amygdalin, reference compound] | − |
| N-[6-[(O-(β-D-glucopyranosyl-(1,6))3-β-D-glucopyranosyl](2RS,3R,4R,5R)-2,3,4,5-tetrahydroxyhexyl]-4-piperidylacetic acid [4-piperidine(CH2)CO2H, n=4] | + |
| N-[6-[(O-(β-D-glucopyranosyl-(1,6))4-β-D-glucopyranosyl](2RS,3R,4R,5R)-2,3,4,5-tetrahydroxyhexyl]-4-piperidylacetic acid [4-piperidine(CH2)CO2H, n=5] | + |
